# From patent US8389513B2, “2-amino-5,5-difluoro-5,6-dihydro-4H-[1,3]oxazin-4-yl)-phenyl]-amides” (Hoffmann-La Roche Inc., priority 2009, dated 2013)
# Experiments:
# hERG channel = target: T1, hERG channel (Homo sapiens, UniProt Q12809); assay: PatchXpress hERG inhibition assay; format: cell-based; conditions: % inhibition @ 1 μM
# T1 construct: expressed in transfected cells; host or cells: CHO
# Text: PatchXpress hERG Inhibition Assay
# For patch clamp electrophysiology, the external buffer contained (in mM): 150 NaCl, 10 Hepes, 4 KCl, 1.2 CaCl2, 1 MgCl2, pH 7.4 adjusted with […] and the internal recording solution contained (in mM): 140 KCl, 6 EGTA, 5 Hepes, MgCl2, 5 ATP-Na2, pH 7.2 adjusted with KOH. Once the cell was loaded in the recording chamber and formed a giga ohm seal with the planar glass electrodes (Sealchip™), a whole-cell configuration was achieved by rupturing the cell membrane. The membrane potential was then clamped at −80 mV and the hERG channel activated by a 1-second depolarizing pulse delivered at 0.1 Hz, the hERG current was measured during the 500 ms-repolarizing pulse to −40 mV. […] The inhibition of hERG current at each concentration was normalized to that recorded in the vehicle control, and fitted with Hill equation to calculate IC20 and/or IC50.
# BACE1 = target: T2, BACE1 (Homo sapiens, UniProt P56817); assay: Cellular Aβ-lowering assay (Aβ40 ELISA); format: cell-based; conditions: HEK293 cells stably expressing human APP695; Aβ40 in culture supernatant; read-out: BACE1 cell act. Aβ40 IC50
# T2 construct: Human HEK293 cells which are stably transfected with a vector expressing a cDNA of the human APP wt gene (APP695); endogenous in cells; host or cells: HEK293 stably transfected with human APP695 wt
# T2 sequence (P56817 46-501): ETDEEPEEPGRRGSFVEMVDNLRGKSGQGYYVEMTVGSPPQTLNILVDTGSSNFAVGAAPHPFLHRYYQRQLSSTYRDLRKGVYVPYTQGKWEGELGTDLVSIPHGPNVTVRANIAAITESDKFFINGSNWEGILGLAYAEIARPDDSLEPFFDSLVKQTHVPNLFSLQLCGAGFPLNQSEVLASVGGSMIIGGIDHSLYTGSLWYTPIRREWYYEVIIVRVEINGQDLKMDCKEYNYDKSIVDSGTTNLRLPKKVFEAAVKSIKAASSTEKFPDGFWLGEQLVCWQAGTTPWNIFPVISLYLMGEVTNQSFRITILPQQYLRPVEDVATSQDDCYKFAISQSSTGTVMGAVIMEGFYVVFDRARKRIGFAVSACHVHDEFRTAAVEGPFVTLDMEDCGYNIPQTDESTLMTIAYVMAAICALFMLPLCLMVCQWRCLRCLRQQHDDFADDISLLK
# In short: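 Aβ40 in supernatant measured by sandwich ELISA (TMB, 450 nm) and quantified against a pure Aβ peptide standard curve.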
# P-gP = P-gP (Homo sapiens, UniProt P08183); assay: P-gP human efflux ratio; format: in vitro ADME; set-up: key: A = not or weak substrate
# Sequence of P-gP (P08183 whole entry): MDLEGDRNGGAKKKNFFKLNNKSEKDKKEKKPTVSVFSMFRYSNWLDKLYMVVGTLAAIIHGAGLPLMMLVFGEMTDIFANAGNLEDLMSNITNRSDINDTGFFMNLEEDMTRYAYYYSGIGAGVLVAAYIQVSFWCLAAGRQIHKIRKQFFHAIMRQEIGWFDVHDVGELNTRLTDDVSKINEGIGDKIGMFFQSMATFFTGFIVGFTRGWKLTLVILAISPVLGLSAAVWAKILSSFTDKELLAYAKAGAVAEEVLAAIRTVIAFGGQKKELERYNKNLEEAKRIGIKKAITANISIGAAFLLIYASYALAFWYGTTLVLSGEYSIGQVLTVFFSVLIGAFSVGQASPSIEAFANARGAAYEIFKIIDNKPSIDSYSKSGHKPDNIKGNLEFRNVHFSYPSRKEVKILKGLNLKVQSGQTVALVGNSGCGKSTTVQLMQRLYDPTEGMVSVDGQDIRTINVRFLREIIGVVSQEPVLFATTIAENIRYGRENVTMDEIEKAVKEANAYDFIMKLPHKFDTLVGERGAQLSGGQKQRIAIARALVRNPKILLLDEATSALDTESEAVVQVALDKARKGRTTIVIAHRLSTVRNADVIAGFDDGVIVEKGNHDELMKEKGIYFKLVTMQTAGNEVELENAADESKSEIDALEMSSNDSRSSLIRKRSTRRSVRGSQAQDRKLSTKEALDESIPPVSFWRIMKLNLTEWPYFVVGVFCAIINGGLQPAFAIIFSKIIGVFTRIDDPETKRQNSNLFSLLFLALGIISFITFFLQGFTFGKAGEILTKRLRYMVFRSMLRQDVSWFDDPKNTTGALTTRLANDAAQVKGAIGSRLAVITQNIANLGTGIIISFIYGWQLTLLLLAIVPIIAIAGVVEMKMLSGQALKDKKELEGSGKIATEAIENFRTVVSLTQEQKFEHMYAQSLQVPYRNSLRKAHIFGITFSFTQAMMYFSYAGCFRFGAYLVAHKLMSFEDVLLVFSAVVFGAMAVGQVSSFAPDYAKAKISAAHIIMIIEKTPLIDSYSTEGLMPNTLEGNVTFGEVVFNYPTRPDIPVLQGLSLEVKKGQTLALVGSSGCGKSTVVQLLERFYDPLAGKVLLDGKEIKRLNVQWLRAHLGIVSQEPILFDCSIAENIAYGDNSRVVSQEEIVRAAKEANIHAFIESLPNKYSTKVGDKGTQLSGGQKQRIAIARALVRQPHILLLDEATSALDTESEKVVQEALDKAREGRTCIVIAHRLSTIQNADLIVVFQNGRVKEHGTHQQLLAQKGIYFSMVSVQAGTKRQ
# [1] = GSH human adduct formation in vitro; format: in vitro ADME; set-up: key: NF = in vitro no significant adduct formation relative to control; conditions: relative to control
# T1 sequence (Q12809 whole entry): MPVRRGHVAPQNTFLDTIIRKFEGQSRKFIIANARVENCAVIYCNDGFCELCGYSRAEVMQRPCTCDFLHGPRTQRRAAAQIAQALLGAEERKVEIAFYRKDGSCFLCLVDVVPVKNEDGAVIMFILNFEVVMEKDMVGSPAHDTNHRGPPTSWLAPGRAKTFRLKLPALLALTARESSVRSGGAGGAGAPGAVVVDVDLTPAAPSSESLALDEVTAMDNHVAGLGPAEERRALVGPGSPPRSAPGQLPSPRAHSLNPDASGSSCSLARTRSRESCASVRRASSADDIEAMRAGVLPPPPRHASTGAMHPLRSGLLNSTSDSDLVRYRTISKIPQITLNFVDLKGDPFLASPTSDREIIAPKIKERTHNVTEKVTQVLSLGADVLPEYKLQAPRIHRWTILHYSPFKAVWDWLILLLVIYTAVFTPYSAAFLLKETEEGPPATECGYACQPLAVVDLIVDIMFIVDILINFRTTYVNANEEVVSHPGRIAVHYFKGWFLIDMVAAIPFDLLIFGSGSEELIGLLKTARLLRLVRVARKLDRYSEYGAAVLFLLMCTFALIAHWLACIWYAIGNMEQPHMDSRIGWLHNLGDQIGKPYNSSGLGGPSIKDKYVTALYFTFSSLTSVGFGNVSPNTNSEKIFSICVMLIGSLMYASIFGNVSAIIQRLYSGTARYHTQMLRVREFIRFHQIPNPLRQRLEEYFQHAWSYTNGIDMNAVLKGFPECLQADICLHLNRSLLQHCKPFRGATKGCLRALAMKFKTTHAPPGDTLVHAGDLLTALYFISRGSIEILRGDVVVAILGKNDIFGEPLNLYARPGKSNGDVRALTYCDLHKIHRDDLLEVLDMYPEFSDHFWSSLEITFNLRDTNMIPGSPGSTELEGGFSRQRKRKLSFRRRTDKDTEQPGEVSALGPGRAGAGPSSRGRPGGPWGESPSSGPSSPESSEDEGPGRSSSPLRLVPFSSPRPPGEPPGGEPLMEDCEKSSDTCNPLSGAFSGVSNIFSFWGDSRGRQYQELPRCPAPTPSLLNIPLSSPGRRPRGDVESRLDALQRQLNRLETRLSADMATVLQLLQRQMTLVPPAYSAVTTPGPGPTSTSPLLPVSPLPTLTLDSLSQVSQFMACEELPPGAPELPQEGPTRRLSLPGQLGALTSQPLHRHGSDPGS
IC50 (BACE1),"P-gP human, efflux ratio: substrate category (P-gP)","GSH human, adduct formation [1]",Compound,hERG (hERG channel)
7 nM,–,–,"CC1(C)OC(N)=N[C@](C)(c2cc(NC(=O)c3ncc(C#N)cc3Cl)ccc2F)C1(F)F [Example 22, 3-Chloro-5-cyano-pyridine-2-carboxylic acid [3-((R)-2-amino-5,5-difluoro-4,6,6-trimethyl-5,6-dihydro-4H-[1,3]oxazin-4-yl)-4-fluoro-phenyl]-amide]",–
7 nM,A,–,"CC1(C)OC(N)=N[C@](C)(c2cc(NC(=O)c3ccc(C#N)cn3)ccc2F)C1(F)F [Example 21, 5-Cyano-pyridine-2-carboxylic acid [3-((R)-2-amino-5,5-difluoro-4,6,6-trimethyl-5,6-dihydro-4H-[1,3]oxazin-4-yl)-4-fluoro-phenyl]-amide]",–
50 nM,A,–,"CC1(C)OC(N)=N[C@](C)(c2cc(NC(=O)c3ncc(C(F)(F)F)cc3Cl)ccc2F)C1(F)F [Example 20, 3-Chloro-5-trifluoromethyl-pyridine-2-carboxylic acid [3-((R)-2-amino-5,5-difluoro-4,6,6-trimethyl-5,6-dihydro-4H-[1,3]oxazin-4-yl)-4-fluoro-phenyl]-amide]",A (A = less than 26% inhibition @ 1 μM)

# Second part, the molecule before the results:
Compound,IC50 (BACE1),"P-gP human, efflux ratio: substrate category (P-gP)","GSH human, adduct formation [1]",hERG (hERG channel)
"C[C@]1(c2cc(NC(=O)c3ccc(Cl)cn3)ccc2F)N=C(N)OCC1(F)F [Example 1, 5-Chloro-pyridine-2-carboxylic acid [3-((R)-2-amino-5,5-difluoro-4-methyl-5,6-dihydro-4H-[1,3]oxazin-4-yl)-4-fluoro-phenyl]-amide]",–,–,–,A (A = less than 26% inhibition @ 1 μM)
"C[C@]1(c2cc(NC(=O)c3ncc(C(F)(F)F)cc3Cl)ccc2F)N=C(N)OCC1(F)F [Example 5, 3-Chloro-5-trifluoromethyl-pyridine-2-carboxylic acid [3-((R)-2-amino-5,5-difluoro-4-methyl-5,6-dihydro-4H-[1,3]oxazin-4-yl)-4-fluoro-phenyl]-amide]",43 nM,A,NF,A (A = less than 26% inhibition @ 1 μM)
"C[C@]1(c2cc(NC(=O)c3ncc(Cl)cc3Cl)ccc2F)N=C(N)OCC1(F)F [Example 8, 3,5-Dichloro-pyridine-2-carboxylic acid [3-((R)-2-amino-5,5-difluoro-4-methyl-5,6-dihydro-4H-[1,3]oxazin-4-yl)-4-fluoro-phenyl]-amide]",15 nM,–,–,A (A = less than 26% inhibition @ 1 μM)
